Marks after values point to notes of the source that are not given here.
Key:
[1] = Antioxidative activity of DPPH (DPPH free radical scavenging); type: biochemical; details: absorbance at 519 nm after 30 minutes in dark at room temperature; mean of 3 repeats
Protocol: Antioxidative activity of DPPH: DPPH belonged to a synthetic stable free radical, which has characteristic absorption in a visible light region. A method for measuring DPPH was simple and fast and had good reproducibility. Flavonoid and a sample of flavonoid and polysaccharide mixed that was prepared in Embodiment 1 were all prepared with 70% ethyl alcohol. The polysaccharide sample, positive control vitamin C (Vc) and vitamin E (Ve) were prepared with distilled water. 1.280 mg/mL stock solution was prepared with each substance to be tested and diluted for 7 concentration gradients for later use. 75 μL of a solution in each concentration to be tested was precisely added to a 96-ferment plate, and then added with 150 μL of 0.1 m MDPPH 70% ethyl alcohol solution. A blank control was set for each reaction hole of each concentration. The blank control was 75 μL of the solution to be tested and 150 μL of 70% ethyl alcohol. The total volume of reaction was 225 μL. The solution was shook well, and kept standing in dark at room temperature for 30 minutes. […] A decrease in absorbency indicated an increase in free radical scavenging activity. Each sample was repeated 3 times for each concentration. Scavenging rate=[A0-(A1-A2)]/A0 A0 was a light absorption value of the DPPH solution plus a solution to be tested at a concentration of zero. […]

[2] = Antioxidative activity of superoxide anions (PMS-NADH-NBT system method); type: biochemical; details: absorbance at 560 nm after 5 min, pH7.4 phosphate buffer
Text: The determination of antioxidative activity of superoxide anions: O2-• was a free radicals with a longer life in a body. In free radical chain reaction. O2-• acted as an initiator to promote the generation of other free radicals, causing further harm to the body, which was closely related to many diseases. Therefore, the ability of the sample to remove O2-• was usually used as an important indicator of the activity of an antioxidative substance. Flavonoid and a sample of flavonoid and polysaccharide mixed that was prepared in Embodiment 1 were all prepared with 70% ethyl alcohol. A polysaccharide sample, positive control vitamin C (Vc) and vitamin E (Ve) were prepared with distilled water. 1.280 mg/mL stock solution was prepared with each substance to be tested and then diluted for 7 concentration gradients for later use. A PMS-NADH-NBT system method was used to determine the activity of scavenging superoxide anions (O2-•). […] When being added to the PMS-NADH-NBT system, an antioxidative substance inhibited the reaction of O2-• with NBT. By measuring absorbency, the ability to scavenge free radicals of antioxidant could be calculated. […] A light absorption value of the solution was measured at 560 nm after 5 min. […]

Row | IC50 of DPPH [1] | IC50 of O2-· [2] | SMILES
1 | 5.33 ± 0.45^a μg/mL | 353.33 ± 4.16^e μg/mL | Cc1c(C)c2c(c(C)c1O)CC[C@@](C)(CCC[C@H](C)CCC[C@H](C)CCCC(C)C)O2 [Ve, vitamin E]
2 | 2.95 ± 0.39^a μg/mL | 208.83 ± 10.41^d μg/mL | O=C1O[C@H]([C@@H](O)CO)C(O)=C1O [Vc, vitamin C]

Source: patent US20220312815A1, “NATURAL FOOD ANTIOXIDANT AND METHOD FOR PREPARING THE SAME” (Lanzhou Universty, priority 2019, published 2022)
